{"source": "patent US6894032B2", "about": "“Use of CDP-choline for the treatment of alcohol withdrawal syndrome” (Ferrer Internacional, S.A., priority 2000, dated 2005)", "key": {"[1]": {"tested_on": "patients with alcohol withdrawal syndrome", "experiment": "Open, randomized, comparative clinical study of CDP-choline in alcohol withdrawal syndrome versus clomethiazole and vitamin B", "format": "in vivo, humans", "conditions": "CDP-choline 500 mg i.m. every 12 h for 30 days, then 200 mg p.o. every 8 h, plus conventional therapy; versus conventional therapy alone; 20 patients per group; at 30 days", "method": "An open, randomized and comparative study on the conventional therapy of alcohol withdrawal syndrome was conducted in 40 patients. Patients were randomly distributed in two groups of 20. One of the groups was used as control and received clomethiazole and vitamin B1, B6 and B12. This treatment regimen was maintained for 8 days, and then patients were given diazepam until completion of treatment (60 days). The other group of patients received the same treatment regimen plus CDP-choline 500 mg i.m. every 12 h for the first 30 days and CDP-choline 200 mg p.o. every 8 h for the remaining 30 days."}, "[2]": {"tested_on": "patients with alcohol withdrawal syndrome", "experiment": "Open clinical study of CDP-choline in alcohol withdrawal syndrome", "format": "in vivo, humans", "method": "The progress of alcohol withdrawal syndrome was assessed in an open study conducted in 197 patients. CDP-choline was administered at doses of 500 mg/d i.m. or 600 mg/d p.o. for 60 days. […] At 60 days, 55.83% of patients had given up drinking alcohol and 31.97% of patients drank much less."}, "[3]": {"conditions": "197 patients, 500 mg/d i.m. or 600 mg/d p.o. for 60 days, at 60 days"}}}
{"smiles": "C[N+](C)(C)CCOP(=O)(O)OP(=O)([O-])OC[C@H]1O[C@@H](n2ccc(N)nc2=O)[C@H](O)[C@@H]1O", "note": "[CDP-choline, cytidine diphosphate choline]", "values": [{"measurement": "tremor incidence (p<0.05), cramps (p<0.05), asthenia (p<0.05), emotional lability (p<0.01), nervousness (p<0.05) and social withdrawal (p<0.05)", "setting": "[1]", "result": "significant differences versus control"}, {"measurement": "anxiety, tremor, disorientation, insomnia, dysarthria, tendency to suicide and neuritic pains", "setting": "[2]; 500 mg/d i.m. or 600 mg/d p.o. for 60 days", "result": "significant improvement"}, {"measurement": "patients who drank much less", "setting": "[2]; [3]", "result": 31.97, "unit": "%"}, {"measurement": "patients who had given up drinking alcohol", "setting": "[2]; [3]", "result": 55.83, "unit": "%"}, {"measurement": "assessments of progress of alcohol withdrawal syndrome", "setting": "[2]; at 30 and 60 days following treatment, p<0.001", "result": "significant differences"}]}
